# Measurements from publication PMC5558686 (British Journal of Cancer, 2017).
# Structures can show the parent of a compound that is named as a salt.
# B1: TRAIL: positive control for caspase-dependent cell death (50 ng ml^−1) (protein, UniProt P50591 1-281, looked up)
# Tumor necrosis factor ligand …: MAMMEVQGGPSLGQTCVLIVIFTVLLQSLCVAVTYVYFTNELKQMQDKYSKSGIACFLKEDDSYWDPNDEESMNSPCWQVKWQLRQLVRKMILRTSEETISTVQEKQQNISPLVRERGPQRVAAHITGTRGRSNTLSSPNSKNEKALGRKINSWESSRSGHSFLSNLHLRNGELVIHEKGFYYIYSQTYFRFQEEIKENTKNDKQMVQYIYKYTSYPDPILLMKSARNSCWSKDAEYGLYSIYQGGIFELKENDRIFVSVTNEHLIDMDHEASFFGAFLVG
# Assays:
# [1] = tested on: UACC 903, 1205 Lu and A2058 tumour development; test: Xenografted melanoma tumour growth; type: in vivo, athymic-Foxn1−/− (nude) mice; details: for tumour weights lower than control groups: end of treatment, Figure 2E and H (UACC 903 and A2058); for decrease in tumour development: oral, perphenazine 50 mg kg^−1 or fluphenazine 25 mg kg^−1 at 4-day intervals
# [2] = Body weight of treated mice; type: in vivo; details: for loss of body weight: xenograft mice, 2 days after oral drug treatments
# [3] = CNS related sedation, video surveillance; type: in vivo, Swiss Webster mice; details: for onset of sedation after oral administration / persistence of sedation: xenograft mice, oral
# UACC 903 cells [4] = test: Co-treatment with apoptosome inhibitor NS3694, viability; type: cell-based; details: 50 μMol/l NS-3694 co-treatment
# UACC 903 cells [5] = test: Western blot of autophagic flux markers LC3B and p62/SQSTM1; type: cell-based
# UACC 903 cells [6] = test: Cholesterol localisation assay; type: cell-based; details: after 6 h
# Serum toxicity markers = type: in vivo, mice; details: serum at end of oral treatment
# [7] = H&E histology of major organs; type: in vivo, mice; details: oral treatment
# [8] = tested on: UACC 903 xenografted tumours; test: Xenografted melanoma tumour growth; type: in vivo, athymic-Foxn1−/− (nude) mice; details: for reduction of tumour growth / tumour inhibition: oral administration, UACC 903 xenograft, day 22
# UACC 903 cells [9] = test: Mitochondrial membrane potential; type: cell-based
# [10] = tested on: BAX-knockout HCT116 cells; test: Viability of BAX-knockout HCT116 cells; type: cell-based, human; details: 24 h, increasing concentrations
# UACC 903 cells [11] = test: Co-treatment with necrosis inhibitors IM-54 / Necrostatin-5, viability; type: cell-based; details: IM-54 and Necrostatin-5
# prostate cancer = details: phase-2; ref Clinical Trial Id: NCT00417274; cited from earlier work
# UACC 903 cells [12] = test: Caspase-dependence, z-VAD-fmk pre-treatment, viability; type: cell-based; details: z-VAD-fmk 20 μmol l^−1, 1 h pre-treatment; TRAIL 50 ng ml^−1
molecule,measurement,setting,value
OCCN1CCN(CCCN2c3ccccc3Sc3ccc(C(F)(F)F)cc32)CC1 [Fluphenazine],tumour weights lower than control groups,[1],40–60%
same,decrease in tumour development,[1],40–60%
same,loss of body weight,[2],10%
same,onset of sedation after oral administration,[3],Thirty to sixty minutes
same,persistence of sedation,[3],> 24 h
same,protection from cell death by NS-3694,UACC 903 cells [4],partially protected
same,LC3B and p62 protein levels (western blot),UACC 903 cells [5],dose-dependent accumulation of LC3B and p62 proteins
"CCN(CC)CCO[C@H]1CC[C@@]2(C)C(=CC[C@@H]3[C@@H]2CC[C@]2(C)C(=O)CC[C@@H]32)C1.Cl [U18666A, U-18666A]",intracellular cholesterol accumulation (Filipin-III staining),UACC 903 cells [6],intracellular cholesterol accumulation
OCCN1CCN(CCCN2c3ccccc3Sc3ccc(Cl)cc32)CC1 [Perphenazine],tumour weights lower than control groups,[1],40–60%
same,decrease in tumour development,[1],40–60%
same,body weight loss,"[2]; Swiss Webster mice, following treatment",10%
same,loss of body weight,[2],10%
same,% of time mice awake in 24 h period,[3]; 15 mg kg^−1 oral,slightly greater sedative effect compared to liposomal treatment
same,% of time mice awake in 24 h period,[3]; 50 mg kg^−1 oral,6%
same,onset of sedation after oral administration,[3],Thirty to sixty minutes
same,persistence of sedation,[3],> 24 h
same,protection from cell death by NS-3694,UACC 903 cells [4],partially protected
same,total bilirubin levels compared to controls,Serum toxicity markers,significantly higher
same,histological analysis of vital organs,[7],no alteration in cell morphology or tissue architecture
same,LC3B and p62 protein levels (western blot),UACC 903 cells [5],dose-dependent accumulation of LC3B and p62 proteins
same,inhibition of UACC 903 tumour development by the free drug,"[8]; 12.5 or 25 mg kg^−1, orally every other day",ineffective
same,reduction of tumour growth / tumour inhibition,[8],60%
same,mitotic figures in H&E stained tumour sections,[8]; tumours from treated animals,significant decrease in mitotic figure numbers
same,ΔΨmt − (cells that lost MMP),UACC 903 cells [9]; 6 h 10 μM,19%
same,ΔΨmt − (cells that lost MMP),UACC 903 cells [9]; 6 h 15 μM,28%
same,sensitivity of BAX-knockout compared with wild-type HCT116 cells,[10],more resistant
"OCCN1CCN(CCC=C2c3ccccc3Sc3ccc(C(F)(F)F)cc32)CC1 [Flupentixol, Flupenthixol diHCL]",protection from cell death by NS-3694,UACC 903 cells [4],partially protected
CC(C)c1ccc2c(c1)CC[C@H]1[C@](C)(CN)CCC[C@]21C [Leelamine],protection from cell death by necrosis inhibitors,UACC 903 cells [11],"neither of the two necrosis inhibitors, IM-54 and Necrostatin-5, protected"
same,intracellular cholesterol accumulation (Filipin-III staining),UACC 903 cells [6],intracellular cholesterol accumulation
"CNCCCN1c2ccccc2CCc2ccccc21 [Desipramine, Desipramine HCL]",reduction of tumour growth / tumour inhibition,[8],30%
"CCN(CC)CCCC(C)Nc1c2ccc(Cl)cc2nc2ccc(OC)cc12 (stereo not shown) [quinacrine, Mepacrine (Quinacrine) DiHCL]",patients with stabilisation or decrease in the rate of disease progression,prostate cancer,~50 % of the patients
"CNCCC=C1c2ccccc2CCc2ccccc21 [Nortriptyline, Nortriptyline HCL]",LC3B and p62 protein levels (western blot),UACC 903 cells [5],dose-dependent accumulation of LC3B and p62 proteins
same,reduction of tumour growth / tumour inhibition,[8],50%
B1,effect of pan-caspase inhibitor z-VAD-fmk on cell death,UACC 903 cells [12],protected cells from apoptosis
